Reference: ChEMBL document CHEMBL1201862, “PubChem BioAssay data set” (2004)
The source made the active and inactive calls.

What was measured:
[1] = P. falciparum Dd2 growth inhibitors, dose response, SYBR Green, cherry-picked samples (AID 1159567); format: functional, cell-based
Protein skinhead-1 = molecular target: T1, Protein skinhead-1 (Caenorhabditis elegans, UniProt P34707); format: functional
T1 sequence (P34707 whole entry): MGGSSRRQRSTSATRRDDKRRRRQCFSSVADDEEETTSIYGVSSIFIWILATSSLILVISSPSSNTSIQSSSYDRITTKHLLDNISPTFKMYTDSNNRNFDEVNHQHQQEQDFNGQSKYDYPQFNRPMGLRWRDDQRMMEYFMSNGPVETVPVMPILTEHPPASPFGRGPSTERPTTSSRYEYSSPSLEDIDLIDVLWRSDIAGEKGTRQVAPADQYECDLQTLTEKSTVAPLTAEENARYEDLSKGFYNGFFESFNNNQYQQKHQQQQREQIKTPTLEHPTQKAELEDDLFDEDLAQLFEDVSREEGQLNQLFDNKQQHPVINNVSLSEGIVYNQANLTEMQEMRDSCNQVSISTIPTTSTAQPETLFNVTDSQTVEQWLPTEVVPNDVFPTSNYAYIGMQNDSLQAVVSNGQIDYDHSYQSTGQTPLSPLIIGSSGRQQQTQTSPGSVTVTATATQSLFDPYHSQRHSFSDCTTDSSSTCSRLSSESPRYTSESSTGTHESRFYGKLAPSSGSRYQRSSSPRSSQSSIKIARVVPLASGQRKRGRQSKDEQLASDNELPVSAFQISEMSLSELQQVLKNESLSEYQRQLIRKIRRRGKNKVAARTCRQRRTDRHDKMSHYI

Streptococcus = test: Group A Streptococcus viability loss, dose response, counter-screen for streptokinase expression inhibitor project, luminescence, BacTiterGlo (AID 1915); format: functional, organism-based;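 further: potency for reduction of bacterial viability or growth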
Streptokinase A = molecular target: T2, Streptokinase A (Streptococcus pyogenes serotype M1, UniProt P10520); test: S. pyogenes streptokinase expression inhibitors, potency, dose response, plasminogen activation absorbance, OD405 (AID 1914); format: functional, Streptococcus pyogenes M1 GAS;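 further: secreted streptokinase activity via plasminogen activation per viability signal from cell pellet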
T2 sequence (P10520 whole entry): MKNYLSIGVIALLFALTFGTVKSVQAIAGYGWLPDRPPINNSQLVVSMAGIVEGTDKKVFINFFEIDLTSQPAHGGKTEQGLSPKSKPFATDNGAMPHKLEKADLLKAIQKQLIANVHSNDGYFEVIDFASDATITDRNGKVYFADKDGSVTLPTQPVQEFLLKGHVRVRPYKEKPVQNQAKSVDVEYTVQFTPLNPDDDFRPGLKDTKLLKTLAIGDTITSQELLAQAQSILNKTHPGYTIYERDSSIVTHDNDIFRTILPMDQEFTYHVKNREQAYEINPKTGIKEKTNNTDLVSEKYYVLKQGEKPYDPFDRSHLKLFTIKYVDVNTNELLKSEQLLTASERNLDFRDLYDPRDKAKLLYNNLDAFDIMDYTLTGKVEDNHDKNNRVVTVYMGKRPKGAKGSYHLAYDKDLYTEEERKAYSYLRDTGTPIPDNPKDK

[2] = microbe, parasite or virus in culture; format: functional; conditions: Mycobacterium tuberculosis
[3] = system: Streptococcus sp. 'group A'; test: growth inhibition of control SK(-) GAS strain, dose response, counter-screen for streptokinase expression inhibitor project, luminescence, kanamycin, BacTiterGlo, confirmation (AID 1900); format: functional, organism-based
H4 = test: Luminescence Cell-Based Dose Response HTS to Identify Activators of 5'UTR Stem-Loop Driven Prion Protein mRNA Translation in H4 Neuroglioblastoma Cells. [Related pubchem assays: 1829 (Project Summary), 1814 (Primary HTS)]; format: functional; conditions: Homo sapiens
[4] = Luminescence Cell-Based Dose Confirmation HTS to Identify Activators of 5'UTR Stem-Loop Driven Alpha-Synuclein mRNA Translation in H4 Neuroglioblastoma Cells. [Related pubchem assays: 1829 (Project Summary), 1814 (Primary HTS)]; format: functional
[5] = Luminescence Cell-Based Dose Response HTS to Identify Activators of Luciferase Translation or Activity in H4 […] Cells. [Related pubchem assays: 1829 (Project Summary), 1814 (Primary HTS)]; format: functional
[6] = Luminescence Cell-Based Dose Retest to Confirm Inhibitors of Cancer Stem Cells. [Related pubchem assays (depositor defined):AID2717, AID2721]; format: functional; conditions: Homo sapiens
Fatty acid synthase [7] = molecular target: T3, Fatty acid synthase (Homo sapiens, UniProt P49327); test: FAS thioesterase domain inhibitors, dose response, biochemical, kinetic fluorescence intensity (AID 624326); format: functional;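 further: rate of fluorescence rise from hydrolysis of a fluorogenic O-methyl fluorescein ester substrate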
Fatty acid synthase [8] = molecular target: T3, Fatty acid synthase; test: FAS thioesterase domain inhibitors, dose response, biochemical, endpoint fluorescence intensity, uHTS hits (AID 624327); format: functional;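 further: fluorescence from hydrolysis of an O-methyl fluorescein acyl ester substrate by the enzyme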
SN12K1 = test: cells; format: functional; conditions: Homo sapiens
P388/ADR = test: cells; format: functional; conditions: Mus musculus, P388/ADR
P388 = test: cells; format: functional; conditions: Mus musculus, P388

T3 sequence (P49327 whole entry, the tested form may be a part): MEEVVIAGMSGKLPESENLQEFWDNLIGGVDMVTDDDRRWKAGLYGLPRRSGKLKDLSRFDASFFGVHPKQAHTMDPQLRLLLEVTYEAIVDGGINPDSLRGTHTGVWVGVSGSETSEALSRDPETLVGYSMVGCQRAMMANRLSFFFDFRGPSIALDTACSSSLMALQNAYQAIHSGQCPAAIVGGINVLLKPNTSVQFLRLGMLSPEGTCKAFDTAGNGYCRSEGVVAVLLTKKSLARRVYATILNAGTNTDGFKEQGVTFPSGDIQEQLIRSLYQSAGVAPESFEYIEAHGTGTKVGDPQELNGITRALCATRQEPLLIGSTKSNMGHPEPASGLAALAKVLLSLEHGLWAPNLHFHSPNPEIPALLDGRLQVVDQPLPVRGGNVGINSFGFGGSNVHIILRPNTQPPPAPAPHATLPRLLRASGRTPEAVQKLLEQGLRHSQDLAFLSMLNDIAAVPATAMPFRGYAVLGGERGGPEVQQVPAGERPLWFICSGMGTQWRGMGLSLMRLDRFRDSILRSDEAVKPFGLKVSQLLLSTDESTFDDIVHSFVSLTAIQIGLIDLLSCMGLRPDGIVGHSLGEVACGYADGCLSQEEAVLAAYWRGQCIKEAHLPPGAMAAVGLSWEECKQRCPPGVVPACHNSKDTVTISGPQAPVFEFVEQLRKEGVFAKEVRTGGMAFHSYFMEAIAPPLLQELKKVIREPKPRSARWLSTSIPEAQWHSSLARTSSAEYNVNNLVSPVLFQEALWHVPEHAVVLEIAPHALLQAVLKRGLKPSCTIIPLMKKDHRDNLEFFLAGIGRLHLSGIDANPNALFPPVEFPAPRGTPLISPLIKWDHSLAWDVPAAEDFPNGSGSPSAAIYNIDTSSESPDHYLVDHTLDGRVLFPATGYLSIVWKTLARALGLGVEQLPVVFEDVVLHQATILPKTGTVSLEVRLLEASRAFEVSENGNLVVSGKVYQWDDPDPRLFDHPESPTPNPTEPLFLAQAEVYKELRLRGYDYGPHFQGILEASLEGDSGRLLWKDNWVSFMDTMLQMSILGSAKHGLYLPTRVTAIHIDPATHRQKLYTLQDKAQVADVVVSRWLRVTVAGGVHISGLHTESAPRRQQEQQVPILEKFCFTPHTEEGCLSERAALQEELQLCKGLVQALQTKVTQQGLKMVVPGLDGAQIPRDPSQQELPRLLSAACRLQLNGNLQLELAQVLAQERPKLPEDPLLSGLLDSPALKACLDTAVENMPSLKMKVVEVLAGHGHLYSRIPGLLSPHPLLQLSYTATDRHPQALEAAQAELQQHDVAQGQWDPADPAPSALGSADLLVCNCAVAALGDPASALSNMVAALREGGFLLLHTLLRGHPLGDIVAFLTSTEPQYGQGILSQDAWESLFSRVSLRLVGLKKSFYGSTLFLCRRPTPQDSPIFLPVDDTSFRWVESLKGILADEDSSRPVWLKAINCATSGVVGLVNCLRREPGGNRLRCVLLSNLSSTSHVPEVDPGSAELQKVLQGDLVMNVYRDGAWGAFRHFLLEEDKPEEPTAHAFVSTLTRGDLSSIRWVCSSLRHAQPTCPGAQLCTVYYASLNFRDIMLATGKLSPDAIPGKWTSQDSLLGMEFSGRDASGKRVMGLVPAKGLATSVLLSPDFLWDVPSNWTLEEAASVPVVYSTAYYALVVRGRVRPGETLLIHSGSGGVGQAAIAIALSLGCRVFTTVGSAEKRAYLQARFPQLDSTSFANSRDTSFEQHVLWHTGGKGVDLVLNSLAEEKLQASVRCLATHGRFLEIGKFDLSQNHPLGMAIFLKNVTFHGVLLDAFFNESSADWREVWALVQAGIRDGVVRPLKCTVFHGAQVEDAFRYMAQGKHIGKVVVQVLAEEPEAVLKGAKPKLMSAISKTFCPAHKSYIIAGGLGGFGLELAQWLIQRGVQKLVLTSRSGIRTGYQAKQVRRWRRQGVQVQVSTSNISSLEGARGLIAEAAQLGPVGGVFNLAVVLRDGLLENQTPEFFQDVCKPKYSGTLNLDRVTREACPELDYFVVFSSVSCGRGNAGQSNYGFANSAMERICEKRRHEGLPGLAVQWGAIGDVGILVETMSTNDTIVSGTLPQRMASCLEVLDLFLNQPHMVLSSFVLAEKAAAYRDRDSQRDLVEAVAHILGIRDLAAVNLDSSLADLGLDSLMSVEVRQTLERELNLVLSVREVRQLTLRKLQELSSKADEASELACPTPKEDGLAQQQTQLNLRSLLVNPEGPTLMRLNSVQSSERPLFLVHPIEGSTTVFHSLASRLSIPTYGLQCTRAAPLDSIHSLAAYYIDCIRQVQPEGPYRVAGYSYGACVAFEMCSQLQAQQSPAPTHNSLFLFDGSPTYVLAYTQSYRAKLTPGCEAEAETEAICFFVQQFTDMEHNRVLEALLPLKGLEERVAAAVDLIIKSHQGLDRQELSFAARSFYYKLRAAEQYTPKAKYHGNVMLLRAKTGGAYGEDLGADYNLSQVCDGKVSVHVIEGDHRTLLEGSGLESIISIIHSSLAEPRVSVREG

Structure (SMILES): CCC(=O)Nc1ccc2c(c1)C(=O)N(C)C[C@H](OC)[C@H](C)CN(Cc1cccc(F)c1)[C@@H](C)CO2
- AC50 [1]: 11.3 µM (active)

Structure (SMILES): CCCC(=O)N1CC2(C1)CN(Cc1ccccc1F)[C@H](CO)c1c2c2ccc(OC)cc2n1C
- AC50 [1]: 6.14 µM (active)

Structure (SMILES): FCCCOc1ccc(/C=N/OCc2ccc(Cl)cc2)cc1
- IC50 (Protein skinhead-1): > 100 µM (inactive)

Structure (SMILES): C#CCn1/c(=N/C(=O)c2cc(Cl)sc2Cl)sc2cc(S(N)(=O)=O)ccc21
- EC50 (Streptococcus): > 150 µM (not active)
- EC50 (Streptokinase A): > 150 µM (not active)
- CC50 [2]: > 40 µM (active)
- EC50 [3]: 14 µM (active)

Structure (SMILES): Cn1c(NC(=O)/C=C/c2ccccc2)cc(=O)n(C)c1=O
- EC50 (H4): 68.7 µM (inconclusive)
- EC50 [4]: 14.9 µM (active)
- EC50 [5]: 26.1 µM (active)

Structure (SMILES): COc1ccc(C2=NN(C(=O)COC(=O)c3ccc(S(C)(=O)=O)c([N+](=O)[O-])c3)C(c3ccco3)C2)cc1 (stereo not given)
- AC50 [6]: 1.52 µM (active)
- CC50 [2]: 9.73 µM (active)

Structure (SMILES): COc1ccc2o/c(=N/c3cc(F)ccc3F)c(C(N)=O)cc2c1
- EC50 (H4): > 120 µM (not active)
- EC50 [4]: > 120 µM (not active)
- EC50 [5]: > 120 µM (not active)

Structure (SMILES): CC(=O)c1ccc(NC(=O)COC(=O)c2c3c(nc4ccccc24)/C(=C\c2cccs2)CCC3)cc1
- AC50 [6]: 3.85 µM (active)
- CC50 [2]: 12.4 µM (active)

Structure (SMILES): CCOC(=O)c1c(NC(=O)CSc2nc3cc(OC)ccc3[nH]2)sc2c1CC(C)(C)NC2(C)C
- CC50 [2]: 21.6 µM (active)

Structure (SMILES): Cc1cc(N2CCCCC2)n2ncc(-c3ccc(Cl)cc3)c2n1
- AC50 [6]: 4.92 µM (active)
- CC50 [2]: > 40 µM (active)

Structure (SMILES): COC(=O)c1cccc(CC2(C)C(=O)Nc3ccc(OC(F)(F)F)cc32)c1 (stereo not given)
- IC50 (Protein skinhead-1): 88.5 µM (inactive)

Structure (SMILES): O=C(COc1ccc(Br)cc1Cl)NC1CCCCC1
- EC50 [4]: 0.174 µM (active)
- EC50 [5]: 0.128 µM (inconclusive)

Structure (SMILES): Clc1ccc(OCc2cnc(Cl)s2)cc1
- IC50 (Protein skinhead-1): 13.2 µM (active)

Structure (SMILES): CC1CCCCN1C(=O)COC(=O)c1cc([N+](=O)[O-])ccc1N1CCOCC1 (stereo not given)
- IC50 (Fatty acid synthase [7]): 10.9 µM (active)
- IC50 (Fatty acid synthase [8]): 9.09 µM (active)

Structure (SMILES): O=P1(Oc2ccc(Cl)cc2Cl)Oc2cc3ccccc3cc2O1
- GI50 (SN12K1): 59.4 µM (inactive)
- GI50 (P388/ADR): 22.4 µM (inactive)
- GI50 (P388): 14 µM (inactive)

Structure (SMILES): CC(C)c1nnc(NC(=O)CCC(=O)N2CCN(c3ccc(Cl)cc3)CC2)s1
- CC50 [2]: > 40 µM (active)

Structure (SMILES): O=C(c1cccc(F)c1)N1CC[C@H]2[C@H](CO)Nc3ccc(C#Cc4cccc(F)c4)cc3[C@H]21
- AC50 [1]: 4.2 µM (active)

Structure (SMILES): Cc1ccc(Nc2nc(/N=C/N(C)C)n[nH]2)cc1C
- EC50 (H4): 28.2 µM (active)
- EC50 [4]: > 120 µM (not active)
- EC50 [5]: > 120 µM (not active)

Structure (SMILES): Cc1c2cnccc2c(C)c2c1c1ccccc1n2CCCN
- GI50 (SN12K1): 0.222 µM (active)
- GI50 (P388/ADR): 0.157 µM (active)
- GI50 (P388): 0.0931 µM (active)

Structure (SMILES): CSCC[C@@H](NC(=O)[C@H](CC(C)C)NC(=O)C(Cc1cnc[nH]1)NC(=O)CNC(=O)[C@@H](NC(=O)[C@H](C)NC(=O)[C@H](Cc1c[nH]c2ccccc12)NC(=O)[C@H](CCC(N)=O)NC(=O)[C@@H](N)CC(N)=O)C(C)C)C(N)=O (stereo not given in full)
- GI50 (SN12K1): > 100 µM (inactive)
- GI50 (P388/ADR): > 100 µM (inactive)
- GI50 (P388): > 100 µM (inactive)
